PubChem BioAssay AID256 (DTP/NCI, 2004)
Values joined by “and” are separate entries in the source; they are usually repeats but may differ in a detail not shown here. Equal entries are not always repeated. Inconclusive results and toxic doses are left out. How the source made its calls: active means survival T/C of 150% or more; inactive means T/C below 125% in these data.

Tested on: CD2F1 mice, L1210 leukemia ip, survival T/C
Test: NCI In Vivo Anticancer Drug Screen. Data for tumor model L1210 Leukemia (intraperitoneal) in CD2F1 (CDF1) mice
Settings: endpoint: mean survival time, higher = longer survival
How it was run: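 Compound-dosed mice with transplantable tumor versus matched vehicle controls; endpoint ratio T/C reported.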

[1] = dose: 100.0 mg/kg/injection, schedule: Q04DX003 (ip), vehicle: saline with Tween-80
[2] = dose: 100.0 mg/kg/injection, schedule: Q01DX009 (ip), vehicle: saline with Tween-80
[3] = dose: 200.0 mg/kg/injection, schedule: Q01DX009 (ip), vehicle: saline with Tween-80
[4] = dose: 200.0 mg/kg/injection, schedule: Q04DX003 (ip), vehicle: saline with Tween-80
[5] = dose: 400.0 mg/kg/injection, schedule: Q04DX003 (ip), vehicle: saline with Tween-80
[6] = dose: 100.0 mg/kg/injection, schedule: Q01DX001 (ip), vehicle: saline with Tween-80
[7] = dose: 200.0 mg/kg/injection, schedule: Q01DX001 (ip), vehicle: saline with Tween-80
[8] = dose: 400.0 mg/kg/injection, schedule: Q01DX001 (ip), vehicle: saline with Tween-80
[9] = dose: 50.0 mg/kg/injection, schedule: Q01DX009 (ip), vehicle: saline with Tween-80
[10] = dose: 25.0 mg/kg/injection, schedule: Q01DX005 (ip), vehicle: water
[11] = dose: 50.0 mg/kg/injection, schedule: Q01DX005 (ip), vehicle: water
[12] = dose: 100.0 mg/kg/injection, schedule: Q01DX005 (ip), vehicle: water

Measured: T/C

CC(c1ccccc1)S(=O)[O-].[C-]#[O+].[C-]#[O+].[Fe+6].[c-]1[c-][c-][cH-][c-]1 (stereo unspecified)
inactive: dose: 25.0 mg/kg/injection, schedule: Q04DX003 (ip), vehicle: saline with Tween-80 94 % of control | dose: 50.0 mg/kg/injection, schedule: Q04DX003 (ip), vehicle: saline with Tween-80 100 % of control | [1] 97 % of control

CCCCCCCCCCCCCCCCOc1ccccc1CNc1cccc(S(=O)(=O)F)c1
inactive: [2] 94 % of control | [1] 95 % of control | [3] 91 % of control | [4] 94 % of control | dose: 400.0 mg/kg/injection, schedule: Q01DX009 (ip), vehicle: saline with Tween-80 87 % of control | [5] 100 % of control

O=C(O)c1cc(-c2ccccc2)nc2ccccc12
inactive: [6] 103 % of control | [7] 97 % of control | [8] 102 % of control

Nc1ncnc2c1ncn2C1OC(C(=O)OCCO)C(O)C1O (stereo unspecified)
inactive: dose: 12.5 mg/kg/injection, schedule: Q01DX009 (ip), vehicle: saline 108 % of control | dose: 25.0 mg/kg/injection, schedule: Q01DX009 (ip), vehicle: saline 114 % of control | dose: 25.0 mg/kg/injection, schedule: Q01DX009 (ip), vehicle: suspension in saline 110 % of control | dose: 25.0 mg/kg/injection, schedule: Q04DX002 (ip), vehicle: saline 93 % of control | dose: 50.0 mg/kg/injection, schedule: Q01DX009 (ip), vehicle: suspension in saline 124 % of control | dose: 50.0 mg/kg/injection, schedule: Q04DX002 (ip), vehicle: saline 95 % of control | dose: 100.0 mg/kg/injection, schedule: Q04DX002 (ip), vehicle: saline 93 % of control | dose: 200.0 mg/kg/injection, schedule: Q04DX002 (ip), vehicle: saline 90 % of control

Cc1ccc(NC(=O)OCCSCCOC(=O)Nc2ccc(C)cc2)cc1
inactive: dose: 100.0 mg/kg/injection, schedule: Q04DX003 (ip), vehicle: other 93 % of control | dose: 200.0 mg/kg/injection, schedule: Q04DX003 (ip), vehicle: other 96 % of control | dose: 400.0 mg/kg/injection, schedule: Q04DX003 (ip), vehicle: other 93 % of control

CN(C)CCOCCOc1ccc(C(C)(C)CC(C)(C)C)cc1
inactive: dose: 1.5 mg/kg/injection, schedule: Q01DX009 (ip), vehicle: saline with Tween-80 105 % of control | dose: 3.0 mg/kg/injection, schedule: Q01DX009 (ip), vehicle: saline with Tween-80 97 % of control | dose: 6.0 mg/kg/injection, schedule: Q01DX009 (ip), vehicle: saline with Tween-80 100 % of control

CCCCCCCCCCCCN1CCCC(O)C1 (stereo unspecified)
inactive: dose: 25.0 mg/kg/injection, schedule: Q01DX009 (ip), vehicle: saline with Tween-80 116 % of control | [9] 92 % of control and 105 % of control | [2] 105 % of control and 111 % of control

FC(F)(F)/C([S-])=C(/[S-])C(F)(F)F.[Fe].[c-]1[c-][c-][cH-][c-]1
inactive: dose: 75.0 mg/kg/injection, schedule: Q01DX001 (ip), vehicle: other 105 % of control | dose: 150.0 mg/kg/injection, schedule: Q01DX001 (ip), vehicle: other 100 % of control

CSc1ccc(NC=O)cc1
inactive: dose: 75.0 mg/kg/injection, schedule: Q01DX001 (ip), vehicle: saline 98 % of control | dose: 150.0 mg/kg/injection, schedule: Q01DX001 (ip), vehicle: saline 100 % of control | dose: 300.0 mg/kg/injection, schedule: Q01DX001 (ip), vehicle: saline 100 % of control

N#C/C(=C\c1cc(Cl)cc(Cl)c1O)c1ccc([N+](=O)[O-])cc1
inactive: [9] 89 % of control | [2] 95 % of control | [3] 96 % of control

Nc1ncnc2c1c1c(=O)[nH]nnc1n2C1OC(CO)C(O)C1O (stereo unspecified)
inactive: dose: 3.13 mg/kg/injection, schedule: Q01DX005 (ip), vehicle: water 101 % of control | dose: 6.25 mg/kg/injection, schedule: Q01DX005 (ip), vehicle: water 103 % of control | dose: 12.5 mg/kg/injection, schedule: Q01DX005 (ip), vehicle: water 92 % of control | dose: 12.5 mg/kg/injection, schedule: Q01DX009 (ip), vehicle: distilled water + Tween-80 113 % of control | [10] 107 % of control | dose: 25.0 mg/kg/injection, schedule: Q01DX009 (ip), vehicle: distilled water + Tween-80 122 % of control | [11] 105 % of control | dose: 50.0 mg/kg/injection, schedule: Q01DX009 (ip), vehicle: distilled water + Tween-80 122 % of control | [12] 107 % of control

CCCN(CCC)S(=O)(=O)c1ccc(NC(=O)OC2CCC3(C)C(=CCC4C3CCC3(C)C(C(C)CCCC(C)C)CCC43)C2)cc1 (stereo unspecified)
inactive: dose: 100.0 mg/kg/injection, schedule: Q01DX001 (sc), vehicle: steriod suspending solution 105 % of control | dose: 200.0 mg/kg/injection, schedule: Q01DX001 (sc), vehicle: steriod suspending solution 97 % of control | dose: 400.0 mg/kg/injection, schedule: Q01DX001 (sc), vehicle: steriod suspending solution 101 % of control

C#CC(O)CCC (stereo unspecified)
inactive: dose: 100.0 mg/kg/injection, schedule: Q01DX001 (ip), vehicle: saline 97 % of control | dose: 200.0 mg/kg/injection, schedule: Q01DX001 (ip), vehicle: saline 97 % of control

CCN(C(=O)CCl)c1ccccc1C
inactive: [1] 92 % of control | [4] 89 % of control

O=NN1C(=O)C2CC3CC(C2)CC1C3
inactive: dose: 12.5 mg/kg/injection, schedule: Q04DX003 (ip), vehicle: acetone 94 % of control

CC(=O)Nc1ccc(/C=C2\N=C(c3cccc([N+](=O)[O-])c3)OC2=O)cc1
inactive: dose: 100.0 mg/kg/injection, schedule: Q04DX002 (ip), vehicle: saline with Tween-80 100 % of control | dose: 200.0 mg/kg/injection, schedule: Q04DX002 (ip), vehicle: saline with Tween-80 100 % of control | dose: 400.0 mg/kg/injection, schedule: Q04DX002 (ip), vehicle: saline with Tween-80 91 % of control

O=C1/C(=N/Nc2ccccc2)c2cccc3cccc1c23
inactive: [6] 97 % of control | [7] 100 % of control | [8] 106 % of control

O/N=C1\CCCCC\C1=N/O.O/N=C1\CCCCC\C1=N/O.[Pt]
inactive: dose: 3.13 mg/kg/injection, schedule: Q04DX003 (ip), vehicle: dextrose 104 % of control | dose: 6.25 mg/kg/injection, schedule: Q04DX003 (ip), vehicle: dextrose 108 % of control | dose: 12.5 mg/kg/injection, schedule: Q04DX003 (ip), vehicle: dextrose 98 % of control | dose: 25.0 mg/kg/injection, schedule: Q04DX003 (ip), vehicle: dextrose 98 % of control and 101 % of control | dose: 50.0 mg/kg/injection, schedule: Q04DX003 (ip), vehicle: dextrose 95 % of control and 106 % of control | dose: 100.0 mg/kg/injection, schedule: Q04DX003 (ip), vehicle: dextrose 103 % of control | dose: 200.0 mg/kg/injection, schedule: Q04DX003 (ip), vehicle: dextrose 96 % of control and 98 % of control

CCSC(C(O)C(O)C(O)C(O)CO)n1cnc2c(SC)ncnc21 (stereo unspecified)
inactive: [10] 89 % of control | [11] 94 % of control | [12] 94 % of control | dose: 200.0 mg/kg/injection, schedule: Q01DX005 (ip), vehicle: water 94 % of control

CC(=O)OC1CCCCC1C (stereo unspecified)
inactive: [2] 105 % of control | [1] 105 % of control | [3] 100 % of control | [4] 110 % of control | [5] 102 % of control
